Counter-ions that a name gives are not always drawn.
What was measured:
[1] = Solubility determination in deionized water; format: physicochemical; details: ultrasonic treatment; for Solubility S: about 2 mg sample
[2] = Hygroscopic behavior test by dynamic vapor sorption (DVS); format: physicochemical; details: for hygroscopic property, in words: dependence on relative humidity; for hygroscopic weight gain: 25° C., DVS
Text: The experimental method for characterizing the acid salt of the crystalline compound of the formula (I) by using dynamic vapor sorption (DVS) comprises the steps of putting a small amount of powder of the acid salt of the crystalline compound of the formula (I) in a precision sample tray in coordination with the instrument, and then sending to the instrument for testing after loading the samples. The model of all the instruments used in the dynamic vapor sorption in the present invention is DVS Intrinsic, the experimental parameters are set to that nitrogen is used as the carrier gas, the constant temperature is set to 25° C., the mass percent change rate per unit time (dm/dt) is equal to 0.01%/min as the determination criteria to achieve balance, the program humidity change cycle is set to that the initial relative humidity is 0%, the relative humidity at the end point is 90%, cycle is set to twice, and every 10% R.H. changes a step.
The inventors of the present invention measured the hygroscopic weight gain results (hygroscopic weight gain/pre-hygroscopic weight*100%) of various crystalline forms at each relative humidity by using the dynamic vapor sorption method, the hygroscopicity of different crystalline compounds was evaluated, and the results obtained were as follows: […]

SMILES | Dissolution Phenomenon [1] | Solubility S [1] | hygroscopic weight gain ([2]; relative humidity 0.0 %) | hygroscopic weight gain ([2]; relative humidity 10.0 %) | hygroscopic weight gain ([2]; relative humidity 20.0 %) | hygroscopic weight gain ([2]; relative humidity 30.0 %) | hygroscopic weight gain ([2]; relative humidity 40.0 %) | hygroscopic weight gain ([2]; relative humidity 50.0 %) | hygroscopic weight gain ([2]; relative humidity 60.0 %) | hygroscopic weight gain ([2]; relative humidity 70.0 %) | hygroscopic weight gain ([2]; relative humidity 80.0 %) | hygroscopic weight gain ([2]; relative humidity 90.0 %) | hygroscopic weight gain of the crystal ([2]; relative humidity less than 80%) | hygroscopic property, in words [2]
Cc1nc(NC(=O)N2CCC(C)(C)C2=O)ccc1Oc1ccnc(-c2cnn(C)c2)c1 [Citrate crystalline form I] | Settled solution | S > 20 mg/mL | – | – | – | – | – | – | – | – | – | – | – | –
Cc1nc(NC(=O)N2CCC(C)(C)C2=O)ccc1Oc1ccnc(-c2cnn(C)c2)c1 [Free compound] | Non-settling | S < 1.5 mg/mL | – | – | – | – | – | – | – | – | – | – | – | –
Cc1nc(NC(=O)N2CCC(C)(C)C2=O)ccc1Oc1ccnc(-c2cnn(C)c2)c1 [Malate crystalline form I] | Settled solution | S > 20 mg/mL | – | – | – | – | – | – | – | – | – | – | – | –
Cc1nc(NC(=O)N2CCC(C)(C)C2=O)ccc1Oc1ccnc(-c2cnn(C)c2)c1 [Phosphate crystalline form I] | Settled solution | S > 20 mg/mL | 0.02% | 1.19% | 1.86% | 2.32% | 2.78% | 3.37% | 3.97% | 4.66% | 5.46% | 6.383% | – | remains less hygroscopicity regardless of the ambient relative humidity
Cc1nc(NC(=O)N2CCC(C)(C)C2=O)ccc1Oc1ccnc(-c2cnn(C)c2)c1 [Tartrate crystalline form I] | Settled solution | S > 20 mg/mL | 0.00% | 0.83% | 1.79% | 2.42% | 2.88% | 3.32% | 3.77% | 4.44% | 5.17% | 10.61% | – | a good linear relationship is formed

More lines, main results first:

Dissolution Phenomenon [1] | Solubility S [1] | hygroscopic weight gain ([2]; relative humidity 0.0 %) | hygroscopic weight gain ([2]; relative humidity 10.0 %) | hygroscopic weight gain ([2]; relative humidity 20.0 %) | hygroscopic weight gain ([2]; relative humidity 30.0 %) | hygroscopic weight gain ([2]; relative humidity 40.0 %) | hygroscopic weight gain ([2]; relative humidity 50.0 %) | hygroscopic weight gain ([2]; relative humidity 60.0 %) | hygroscopic weight gain ([2]; relative humidity 70.0 %) | hygroscopic weight gain ([2]; relative humidity 80.0 %) | hygroscopic weight gain ([2]; relative humidity 90.0 %) | hygroscopic weight gain of the crystal ([2]; relative humidity less than 80%) | SMILES | hygroscopic property, in words [2]
Settled solution | S > 20 mg/mL | – | – | – | – | – | – | – | – | – | – | – | Cc1nc(NC(=O)N2CCC(C)(C)C2=O)ccc1Oc1ccnc(-c2cnn(C)c2)c1 [Fumarate crystalline form I] | –
Settled solution | S > 20 mg/mL | 0.00% | 0.13% | 0.24% | 0.34% | 0.42% | 0.52% | 0.63% | 0.81% | 1.37% | 19.40% | less than 1% | Cc1nc(NC(=O)N2CCC(C)(C)C2=O)ccc1Oc1ccnc(-c2cnn(C)c2)c1 [Hydrochloride crystalline form I] | when the relative humidity was increased to 90%, the hygroscopicity of the crystal was increased significantly
Settled solution | S > 20 mg/mL | 0.00% | 0.11% | 0.18% | 0.20% | 0.24% | 0.31% | 0.88% | 8.93% | 12.44% | 23.15% | – | Cc1nc(NC(=O)N2CCC(C)(C)C2=O)ccc1Oc1ccnc(-c2cnn(C)c2)c1 [Mesylate crystalline form II] | significantly increased when the relative humidity is increased to 70%
Settled solution | S > 20 mg/mL | – | – | – | – | – | – | – | – | – | – | – | Cc1nc(NC(=O)N2CCC(C)(C)C2=O)ccc1Oc1ccnc(-c2cnn(C)c2)c1 [Sulfate crystalline form I] | –
